Patent US10064815B2, “Formulations and methods for vaginal delivery of antiprogestins” (REPROS THERAPEUTICS INC., priority 2014, dated 2018)

How the values were obtained:
vaginal mucous membrane = assay: Cumulative vaginal mucous membrane irritancy in rabbits; assay type: in vivo, New Zealand White rabbits; conditions: rabbit
Method: Pullulan capsules (Capsugel NPcaps®, size 0) comprising CDB-4124 were administered once daily for 10 consecutive days intravaginally to 10 healthy virgin female New Zealand White rabbits in order to determine the cumulative vaginal mucous membrane irritancy potential and to obtain plasma samples for pharmacokinetic analysis. Five rabbits were assigned to each of two groups, the first dosed with vehicle control (pullulan capsules with 0.5 ml PEG 1000 fill) introduced into the upper vaginal vault of each rabbit using a syringe applicator (Group 1), the second with CDB-4124 (pullulan capsules with 12 mg CDB-4124 in 0.5 ml PEG 1000) (Group 2). The external vaginal mucosa of each animal was examined for erythema, edema and discharge prior to the initial dose, immediately prior to each treatment and prior to sacrifice. All animals were examined for gross pathology.

[1] = Pharmacokinetics of vaginal pullulan capsules with 12 mg CDB-4124 in women with uterine fibroids, compared with oral doses; assay type: in vivo, human
Method: (§1) Capsugel NPcaps® were filled with the excipient fill formulations described above with 12 mg CDB-4124 (telapristone acetate) and administered vaginally to human females with uterine fibroids once per day for a period of 2 weeks to determine the length of time required to reach steady state and overall systemic exposure of the parent compound (CDB-4124) and the primary metabolite (CDB-4453). The capsules were administered using a commercially available vaginal applicator modified by reversing the insert (see FIG. 5). The unmodified applicator comprises a barrel and plunger with the barrel having a relatively wide opening on one end and a relatively narrow opening on the other end. The applicator is designed such that the drug is placed in the end with the larger diameter opening (entrance end), the applicator is inserted into the vagina and the plunger is used to push the drug out the barrel and into the vagina. For insertion of the filled NPcaps, the shell end of the capsule (having a […] diameter) was placed into the narrow opening in the barrel, leaving the cap exposed. […] Pharmacokinetic data was then obtained from patients.

[2] = system: human females with uterine fibroids; assay: Efficacy of vaginal 12 mg CDB-4124 in women with uterine fibroids (menses, PBAC, UFSQOL); assay type: in vivo
Method: as §1
In a previous oral study, doses of 1, 3, 6, 9 and 12 mg of CDB-4124 were administered for a period of 10 weeks. […] Cessation of menses directly correlates to efficacy of an oral dose in both uterine fibroids and endometriosis. […] Given the overall low exposure of the 12 mg dose, in those women that continued to menstruate, further improvements in reduction of symptoms are expected with longer exposure to the drug. In efficacy studies in which CDB-4124 was administered orally, women experienced a nearly 50% reduction in mean fibroid size at a 25 mg dose. When those women were then escalated to a 50 mg oral dose for an additional four months, fibroid size was reduced to approximately 25% of the initial volume. […] It is expected that vaginal delivery of CDB-4124 at the 12 mg dose will have greater activity than the oral 50 mg dose despite a maximum exposure 1/100th of the 50 mg oral dose. […]

uterine fibroids = assay: Previous oral studies of CDB-4124 (menses, fibroid size, symptoms); assay type: in vivo, human
Method: In a previous oral study, doses of 1, 3, 6, 9 and 12 mg of CDB-4124 were administered for a period of 10 weeks. […] Cessation of menses directly correlates to efficacy of an oral dose in both uterine fibroids and endometriosis. […] Given the overall low exposure of the 12 mg dose, in those women that continued to menstruate, further improvements in reduction of symptoms are expected with longer exposure to the drug. In efficacy studies in which CDB-4124 was administered orally, women experienced a nearly 50% reduction in mean fibroid size at a 25 mg dose. When those women were then escalated to a 50 mg oral dose for an additional four months, fibroid size was reduced to approximately 25% of the initial volume. […] It is expected that vaginal delivery of CDB-4124 at the 12 mg dose will have greater activity than the oral 50 mg dose despite a maximum exposure 1/100th of the 50 mg oral dose. Even with this low exposure after only 4 weeks of treatment, significant improvements in fibroid related condition have been observed.

[3] = 12 mg CDB-4124 vaginally daily for 10 days
[4] = 12 mg vaginal, pair-wise comparison of 6 women

COCC(=O)[C@@]1(OC(C)=O)CC[C@H]2[C@@H]3CCC4=CC(=O)CCC4=C3[C@@H](c3ccc(N(C)C)cc3)C[C@@]21C [CDB-4124, 21-methoxy-17α-acetoxy-11β-(4 N,N-dimethylaminophenyl)-19-norpregna-4,9-diene-3,20-dione]
gross findings in ovaries, uterus, vagina (vaginal mucous membrane; [3]): No gross findings | histopathological findings (vaginal mucous membrane; [3]): nor were any histopathological findings observed | external vaginal mucosa (erythema, edema) (vaginal mucous membrane; 12 mg CDB-4124 vaginally daily for 10 days, 2/5 rabbits on 4 occasions, otherwise normal): very slight erythema and/or edema | irritation index (vaginal mucous membrane; pullulan capsules, 12 mg CDB-4124 in 0.5 ml PEG 1000, vaginally daily for 10 days): none | maximum exposure relative to the 50 mg oral dose ([1]; 12 mg vaginal dose): 1/100 | Cmax compared with oral doses ([1]; 12 mg vaginal versus 1, 3, 6, 9, 12 mg oral, FIG. 2): lower than any of the oral doses | time to steady state concentration ([1]; women with uterine fibroids, 12 mg vaginal pullulan capsule once per day): within one week | systemic exposure (AUC) relative to an equivalent oral dose ([1]; women with uterine fibroids, 12 mg vaginal versus oral, FIG. 1): about ⅙ | cessation of menses (number of women) ([2]; 12 mg vaginal dose, 6 women compared): 3 | statistical significance (p) of reduction in menstrual bleeding, Pictorial Blood Loss Assessment Chart (PBAC) [2, 4]: < 0.05 | statistical significance (p) of reduction in overall uterine fibroid symptoms, UFSQOL [2, 4]: < 0.05 | fibroid size as % of the initial volume (uterine fibroids; escalated to 50 mg oral for an additional four months): approximately 25% | efficacy of 1 mg oral dose (uterine fibroids; oral 1 mg): ineffective | reduction in mean fibroid size (uterine fibroids; oral 25 mg dose): ~50% | tolerability (uterine fibroids; oral 1, 3, 6, 9 and 12 mg for 10 weeks): all doses were well tolerated | fibroid symptoms scored by UFSQOL (uterine fibroids; oral CDB-4124): in general, symptom free | lowest dose inducing reliable cessation of menses (uterine fibroids; oral, 10 weeks): 3 mg
